Assay results: patent US20230157952A1, “METHOD FOR IMPROVING THE STABILITY OF A PHARMACEUTICAL COMPOSITION COMPRISING A HIGH PENETRATION DRUG, AND THE PHARMACEUTICAL COMPOSITION OBTAINED THEREFROM” (Techfields Inc., priority 2020, published 2023)
Blank lines part the entries; values can stand above or below the molecule they belong to.

Test: Effect of temperature (and pH) on the stability of the solution (purity)
Assay type: physicochemical

Purity (%) at day 21 (60° C.) (pH 1.0, 7% solution in water): 0% | Purity(%) at day 0 (pH 1.0, 7% solution in water): 97.9 ± 0.3% | Purity(%) at day 21 (5° C.) (pH 1.0, 7% solution in water): 91.3 ± 0.3% | Purity(%) at day 21 (25° C.) (pH 1.0, 7% solution in water): 67.3 ± 0.3% | Purity(%) at day 21 (40° C.) (pH 1.0, 7% solution in water): 15.1 ± 0.3% | Purity (%) at day 21 (60° C.) (pH 2.0, 7% solution in water): 0% | Purity(%) at day 0 (pH 2.0, 7% solution in water): 98.0 ± 0.2% | Purity(%) at day 21 (5° C.) (pH 2.0, 7% solution in water): 95.1 ± 0.3% | Purity(%) at day 21 (25° C.) (pH 2.0, 7% solution in water): 82.1 ± 0.3% | Purity(%) at day 21 (40° C.) (pH 2.0, 7% solution in water): 27.0 ± 0.3% | Purity (%) at day 21 (60° C.) (pH 3.0, 7% solution in water): 0% | Purity(%) at day 0 (pH 3.0, 7% solution in water): 98.3 ± 0.2% | Purity(%) at day 21 (5° C.) (pH 3.0, 7% solution in water): 97.0 ± 0.2% | Purity(%) at day 21 (25° C.) (pH 3.0, 7% solution in water): 93.5 ± 0.2% | Purity(%) at day 21 (40° C.) (pH 3.0, 7% solution in water): 48.3 ± 0.3% | Purity (%) at day 21 (60° C.) (pH 3.7, 7% solution in water): 13.3 ± 0.5% | Purity(%) at day 0 (pH 3.7, 7% solution in water): 98.4 ± 0.1% | Purity(%) at day 21 (5° C.) (pH 3.7, 7% solution in water): 97.6 ± 0.2% | Purity(%) at day 21 (25° C.) (pH 3.7, 7% solution in water): 96.9 ± 0.3% | Purity(%) at day 21 (40° C.) (pH 3.7, 7% solution in water): 57.2 ± 0.2% | Purity (%) at day 21 (60° C.) (pH 4.0, 7% solution in water): 18.2 ± 0.3% | Purity(%) at day 0 (pH 4.0, 7% solution in water): 98.5 ± 0.1% | Purity(%) at day 21 (5° C.) (pH 4.0, 7% solution in water): 98.0 ± 0.1% | Purity(%) at day 21 (25° C.) (pH 4.0, 7% solution in water): 97.0 ± 0.2% | Purity(%) at day 21 (40° C.) (pH 4.0, 7% solution in water): 68.1 ± 0.3% | Purity (%) at day 21 (60° C.) (pH 4.3, 7% solution in water): 17.2 ± 0.2% | Purity(%) at day 0 (pH 4.3, 7% solution in water): 98.5 ± 0.2% | Purity(%) at day 21 (5° C.) (pH 4.3, 7% solution in water): 98.0 ± 0.1% | Purity(%) at day 21 (25° C.) (pH 4.3, 7% solution in water): 97.0 ± 0.3% | Purity(%) at day 21 (40° C.) (pH 4.3, 7% solution in water): 68.1 ± 0.3% | Purity (%) at day 21 (60° C.) (pH 4.6, 7% solution in water): 14.3 ± 0.3% | Purity(%) at day 0 (pH 4.6, 7% solution in water): 98.6 ± 0.1% | Purity(%) at day 21 (5° C.) (pH 4.6, 7% solution in water): 98.1 ± 0.2% | Purity(%) at day 21 (25° C.) (pH 4.6, 7% solution in water): 96.1 ± 0.2% | Purity(%) at day 21 (40° C.) (pH 4.6, 7% solution in water): 54.5 ± 0.2% | Purity (%) at day 21 (60° C.) (pH 5.0, 7% solution in water): 1.2 ± 0.2% | Purity(%) at day 0 (pH 5.0, 7% solution in water): 98.4 ± 0.2% | Purity(%) at day 21 (5° C.) (pH 5.0, 7% solution in water): 96.9 ± 0.2% | Purity(%) at day 21 (25° C.) (pH 5.0, 7% solution in water): 93.1 ± 0.3% | Purity(%) at day 21 (40° C.) (pH 5.0, 7% solution in water): 40.8 ± 0.3% | Purity (%) at day 21 (60° C.) (pH 6.0, 7% solution in water): 0% | Purity(%) at day 0 (pH 6.0, 7% solution in water): 98.2 ± 0.2% | Purity(%) at day 21 (5° C.) (pH 6.0, 7% solution in water): 95.0 ± 0.2% | Purity(%) at day 21 (25° C.) (pH 6.0, 7% solution in water): 86.7 ± 0.2% | Purity(%) at day 21 (40° C.) (pH 6.0, 7% solution in water): 27.8 ± 0.2% | Purity (%) at day 21 (60° C.) (pH 7.0, 7% solution in water): 0% | Purity(%) at day 0 (pH 7.0, 7% solution in water): 98.0 ± 0.3% | Purity(%) at day 21 (5° C.) (pH 7.0, 7% solution in water): 90.0 ± 0.3% | Purity(%) at day 21 (25° C.) (pH 7.0, 7% solution in water): 59.3 ± 0.3% | Purity(%) at day 21 (40° C.) (pH 7.0, 7% solution in water): 11.0 ± 0.4% | Purity (%) at day 21 (60° C.) (pH 8.0, 7% solution in water): 0% | Purity(%) at day 0 (pH 8.0, 7% solution in water): 97.8 ± 0.3% | Purity(%) at day 21 (5° C.) (pH 8.0, 7% solution in water): 78.3 ± 0.3% | Purity(%) at day 21 (25° C.) (pH 8.0, 7% solution in water): 47.1 ± 0.3% | Purity(%) at day 21 (40° C.) (pH 8.0, 7% solution in water): 0%
Structure (SMILES): CCN(CC)CCOC(=O)Cc1ccccc1Oc1ccc(Cl)cc1Cl.Cl

Purity (%) at day 21 (60° C.) (pH 1.02, 7% solution in water): 0% | Purity(%) at day 21 (5° C.) (pH 1.02, 7% solution in water): 93.1 ± 0.3% | Purity(%) at day 21 (25° C.) (pH 1.02, 7% solution in water): 70.7 ± 0.4% | Purity(%) at day 21 (40° C.) (pH 1.02, 7% solution in water): 18.5 ± 0.3% | Purity (%) at day 21 (60° C.) (pH 2.09, 7% solution in water): 0% | Purity(%) at day 21 (5° C.) (pH 2.09, 7% solution in water): 97.0 ± 0.4% | Purity(%) at day 21 (25° C.) (pH 2.09, 7% solution in water): 86.0 ± 0.4% | Purity(%) at day 21 (40° C.) (pH 2.09, 7% solution in water): 30.6 ± 0.4% | Purity (%) at day 21 (60° C.) (pH 3.01, 7% solution in water): 8.4 ± 0.3% | Purity(%) at day 21 (25° C.) (pH 3.01, 7% solution in water): 96.1 ± 0.3% | Purity(%) at day 21 (40° C.) (pH 3.01, 7% solution in water): 56.1 ± 0.4% | Purity (%) at day 21 (60° C.) (pH 3.68, 7% solution in water): 16.0 ± 0.4% | Purity(%) at day 21 (40° C.) (pH 3.68, 7% solution in water): 64.1 ± 0.5% | Purity (%) at day 21 (60° C.) (pH 4.07, 7% solution in water): 22.7 ± 0.4% | Purity(%) at day 21 (40° C.) (pH 4.07, 7% solution in water): 72.6 ± 0.4% | Purity (%) at day 21 (60° C.) (pH 4.35, 7% solution in water): 18.3 ± 0.3% | Purity(%) at day 21 (40° C.) (pH 4.35, 7% solution in water): 72.6 ± 0.5% | Purity (%) at day 21 (60° C.) (pH 4.67, 7% solution in water): 10.4 ± 0.5% | Purity(%) at day 21 (25° C.) (pH 4.67, 7% solution in water): 97.5 ± 0.4% | Purity(%) at day 21 (40° C.) (pH 4.67, 7% solution in water): 58.3 ± 0.4% | Purity (%) at day 21 (60° C.) (pH 4.96, 7% solution in water): 4.0 ± 0.3% | Purity(%) at day 21 (5° C.) (pH 4.96, 7% solution in water): 97.0 ± 0.4% | Purity(%) at day 21 (25° C.) (pH 4.96, 7% solution in water): 95.1 ± 0.4% | Purity(%) at day 21 (40° C.) (pH 4.96, 7% solution in water): 50.5 ± 0.5% | Purity (%) at day 21 (60° C.) (pH 5.98, 7% solution in water): 0% | Purity(%) at day 21 (5° C.) (pH 5.98, 7% solution in water): 95.8 ± 0.4% | Purity(%) at day 21 (25° C.) (pH 5.98, 7% solution in water): 90.2 ± 0.4% | Purity(%) at day 21 (40° C.) (pH 5.98, 7% solution in water): 29.9 ± 0.4% | Purity (%) at day 21 (60° C.) (pH 6.99, 7% solution in water): 0% | Purity(%) at day 21 (5° C.) (pH 6.99, 7% solution in water): 90.0 ± 0.5% | Purity(%) at day 21 (25° C.) (pH 6.99, 7% solution in water): 77.1 ± 0.4% | Purity(%) at day 21 (40° C.) (pH 6.99, 7% solution in water): 19.9 ± 0.4% | Purity (%) at day 21 (60° C.) (pH 8.01, 7% solution in water): 0% | Purity(%) at day 0 (pH 8.01, 7% solution in water): 97.6 ± 0.5% | Purity(%) at day 21 (5° C.) (pH 8.01, 7% solution in water): 81.1 ± 0.5% | Purity(%) at day 21 (25° C.) (pH 8.01, 7% solution in water): 52.3 ± 0.4% | Purity(%) at day 21 (40° C.) (pH 8.01, 7% solution in water): 0%
Structure (SMILES): CCN(CC)CCOC(=O)[C@H](C)c1ccc(CC(C)C)cc1.Cl
